One experiment addresses T1, recombinant alpha-glucosidase I (human full-length glucosidase I, Glu 1) (Homo sapiens, UniProt Q13724).
T1 construct: 6-His (C); made in house; host or cells: HEK-293T cells transduced with BacMam virus (virus raised in Sf9)
T1 sequence (Q13724 1-837): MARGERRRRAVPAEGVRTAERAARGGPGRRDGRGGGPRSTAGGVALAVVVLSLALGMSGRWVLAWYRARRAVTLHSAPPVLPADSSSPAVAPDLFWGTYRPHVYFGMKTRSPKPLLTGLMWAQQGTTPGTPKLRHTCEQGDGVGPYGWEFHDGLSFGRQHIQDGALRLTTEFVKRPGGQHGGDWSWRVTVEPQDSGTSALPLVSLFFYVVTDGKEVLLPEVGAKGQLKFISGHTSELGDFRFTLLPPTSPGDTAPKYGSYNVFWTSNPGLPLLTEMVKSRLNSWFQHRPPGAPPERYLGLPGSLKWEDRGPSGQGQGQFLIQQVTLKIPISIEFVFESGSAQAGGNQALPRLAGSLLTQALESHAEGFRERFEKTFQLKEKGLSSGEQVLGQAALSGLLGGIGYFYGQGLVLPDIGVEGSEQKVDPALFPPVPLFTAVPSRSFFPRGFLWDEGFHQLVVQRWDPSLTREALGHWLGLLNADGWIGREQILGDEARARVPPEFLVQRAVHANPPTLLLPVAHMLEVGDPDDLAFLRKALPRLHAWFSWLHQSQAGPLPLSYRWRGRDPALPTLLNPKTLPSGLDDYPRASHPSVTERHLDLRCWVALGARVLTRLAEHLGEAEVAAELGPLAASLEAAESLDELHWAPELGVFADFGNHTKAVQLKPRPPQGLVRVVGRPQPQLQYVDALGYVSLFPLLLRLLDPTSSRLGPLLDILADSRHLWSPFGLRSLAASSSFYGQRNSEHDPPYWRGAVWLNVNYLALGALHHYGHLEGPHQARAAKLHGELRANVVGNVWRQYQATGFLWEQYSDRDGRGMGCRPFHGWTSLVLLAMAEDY
The experiment can be described thus: Alpha-glucosidase I assay (Amplex Red glucose detection, synthetic trisaccharide substrate). The format is biochemical.
Conditions: not given
The text has this:
Preparation of Human Full-length Glucosidase I: The amino acid sequence for human full-length glucosidase I was obtained from UniProt (Q13724). […] The entry vector was cloned into Kemp Proteins' BacMam Destination vector and transformed into chemically competent DH10Bac E. coli cells to produce recombinant glucosidase I bacmids. Bacmid isolates were obtained following two rounds of blue-white screening and they were transfected into Sf9 cells cultivated in serum-free medium (Thermo Fisher Scientific). Four days post-transfection the culture supernatants containing virus were harvested and filter sterilized. […] A multiplicity of infection (MOI, ratio of virus to cells) of 4 was selected. Soluble glucosidase I was detected by anti-His western blots in the soluble cell extract following extraction with 1% V/V NP40 for 30 minutes at 0° C. Productions and purifications of glucosidase I were carried out at scales ranging from 1-liter to 10-liters. […] In another example production at the 10-liter scale was performed in stirred-tank bioreactors at 27° C. and 80 rpm with dissolved oxygen level at 50% of oxygen in air and pH between 7.0 and 7.2. Cells were transduced at MOI of 4 and the cell pellet was harvested at 48 hours post-transduction using centrifugation.
The pellet from a 10-liter culture was lysed by resuspending the pellet into 1-liter of 50 mM NaH2PO4—H2O+300 mM NaCl+10 mM Imidazole+1 mM PMSF+1% V/V NP40 pH 8. The suspension was incubated on ice for 30 minutes and clarified at 500×g and 4° C. The supernatant was collected and clarified at 20,000×g for 30 minutes at 4° C. and the supernatant was collected and filtered through a 0.2 micron filter. […] The column was washed with 20 column volumes (CV) of 50 mM NaH2PO4-H2O+300 mM NaCl+10 mM Imidazole pH 8 and eluted using a linear gradient of 0-60% 50 mM NaH2PO4-H2O+300 mM NaCl+500 mM Imidazole pH 8 over 90 minutes. at 5 mL per minute. Fractions (25 mL) were collected and analyzed by SDS PAGE and Western Blot (reducing anti-His). Fractions containing purified glucosidase I were pooled and dialyzed into storage buffer (20 mM Tris+300 mM NaCl+50 mM L-arginine+10 mM EDTA+0.01% V/V Tween 80 pH 7.5). The final material was filter sterilized and stored at 4° C. and the working dilution confirmed by a use-test in the indicated assay conditions prior to use.
Alpha-glucosidase I Assay: The assay was performed by incubating recombinant alpha-glucosidase I enzyme with multiple dilutions of test compounds for 60 minutes at 37° C. A synthetic trisaccharide substrate analog was then introduced to the mixture for 90 minutes at 37° C. The reaction was then stopped with 1.5M Tris (pH 8). In the absence of inhibition, the terminal glucose of the substrate was hydrolyzed by the enzyme. The D-glucose product was detected using Amplex Red Glucose/Glucose Oxidase Assay Kit (Invitrogen) following the manufacturer's directions where glucose oxidase reacts with D-glucose to form D-gluconolactone and H2O2 which then reacts with the Amplex Red reagent to generate a red-fluorescent oxidation product (560 nm, excitation; 590 nm, emission). […] Percent inhibition is plotted as a function of concentration for each compound, compared to control reactions. The IC50 was determined using a 4-PL curve fit and serves as a measure of relative inhibitory activity of each test compound (see Table 3).
For orientation: IC50 means the point on the concentration scale where inhibition reaches its midpoint. For `O=[N+]([O-])c1cc(-c2ccccc2)ccc1NCCCCCCN1C[C@H](O)[C@@H](O)[C@H](O)[C@H]1CO` [Compound 1138, (2R,3R,4R,5S)-2-(hydroxymethyl)-1-[6-({3-nitro-[1,1′-biphenyl]-4-yl}amino)hexyl]piperidine-3,4,5-triol], the IC50 amounted to 115 nM.

Still in this experiment, the particulars now being: Glucosidase 1; read-out: Glu 1 IC50.
On to `CCCc1nc(-c2cc(Cl)cc(NCCc3ccc(CCN4C[C@H](O)[C@@H](O)[C@H](O)[C@H]4CO)cc3)c2)no1` [Compound 1123, (2R,3R,4R,5S)-1-{2-[4-(2-{[3-chloro-5-(5-propyl-1,2,4-oxadiazol-3-yl)phenyl]amino}ethyl)phenyl]ethyl}-2-(hydroxymethyl)piperidine-3,4,5-triol], for which the IC50 was determined as 1360 nM.
`COC(OC)c1cc(NCCCCCCN2C[C@H](O)[C@@H](O)[C@H](O)[C@H]2CO)cc(-c2ncccn2)c1` [Compound 1124, (2R,3R,4R,5S)-1-(6-{[3-(dimethoxymethyl)-5-(pyrimidin-2-yl)phenyl]amino}hexyl)-2-(hydroxymethyl)piperidine-3,4,5-triol]: the IC50 was found to be 513 nM.
`CC(=O)Nc1cc(NCCCCCCN2C[C@H](O)[C@@H](O)[C@H](O)[C@H]2CO)cc(-c2ncccn2)c1` [Compound 1125, N-[3-(pyrimidin-2-yl)-5-({6-[(2R,3R,4R,5S)-3,4,5-trihydroxy-2-(hydroxymethyl)piperidin-1-yl]hexyl}amino)phenyl]acetamide]: the IC50 stood at 337 nM.
On the same count and under the same terms, to `CN(C)C(=O)c1cc(NCCCCCCN2C[C@H](O)[C@@H](O)[C@H](O)[C@H]2CO)cc(-c2ncccn2)c1` [Compound 1126, N,N-dimethyl-3-(pyrimidin-2-yl)-5-({6-[(2R,3R,4R,5S)-3,4,5-trihydroxy-2-(hydroxymethyl)piperidin-1-yl]hexyl}amino)benzamide] belongs 550 nM.
For `CS(=O)(=O)c1cc(NCCCCCCN2C[C@H](O)[C@@H](O)[C@H](O)[C@H]2CO)cc(-c2ncccn2)c1` [Compound 1128, (2R,3R,4R,5S)-2-(hydroxymethyl)-1-(6-{[3-methanesulfonyl-5-(pyrimidin-2-yl)phenyl]amino}hexyl)piperidine-3,4,5-triol], the IC50 is 116 nM.
Still for that read-out and setting: the same measure for `O=Cc1cc(NCCCCCCN2C[C@H](O)[C@@H](O)[C@H](O)[C@H]2CO)cc(-c2ncccn2)c1` [Compound 1129, 3-(pyrimidin-2-yl)-5-({6-[(2R,3R,4R,5S)-3,4,5-trihydroxy-2-(hydroxymethyl)piperidin-1-yl]hexyl}amino)benzaldehyde]: 148 nM; for `N#Cc1cc(NCCCCCCN2C[C@H](O)[C@@H](O)[C@H](O)[C@H]2CO)cc(-c2ncccn2)c1` [Compound 1130, 3-(pyrimidin-2-yl)-5-({6-[(2R,3R,4R,5S)-3,4,5-trihydroxy-2-(hydroxymethyl)piperidin-1-yl]hexyl}amino)benzonitrile]: 244 nM.
With `OC[C@@H]1[C@@H](O)[C@H](O)[C@@H](O)CN1CCCCCCNc1cc(-c2ncccn2)cc(C(F)(F)F)c1` [Compound 1131, (2R,3R,4R,5S)-2-(hydroxymethyl)-1-(6-{[3-(pyrimidin-2-yl)-5-(trifluoromethyl)phenyl]amino}hexyl)piperidine-3,4,5-triol], the IC50 stood at 232 nM.
On to `COc1cc(C#N)cc(NCCc2ccc(CCN3C[C@H](O)[C@@H](O)[C@H](O)[C@H]3CO)cc2)c1` [Compound 1133, 3-methoxy-5-{[2-(4-{2-[(2R,3R,4R,5S)-3,4,5-trihydroxy-2-(hydroxymethyl)piperidin-1-yl]ethyl}phenyl)ethyl]amino}benzonitrile], for which the IC50 was 1280 nM.
Same read-out and setting: the same measure for `N#Cc1cc(Cl)cc(NCCc2ccc(CCN3C[C@H](O)[C@@H](O)[C@H](O)[C@H]3CO)cc2)c1` [Compound 1134, 3-chloro-5-{[2-(4-{2-[(2R,3R,4R,5S)-3,4,5-trihydroxy-2-(hydroxymethyl)piperidin-1-yl]ethyl}phenyl)ethyl]amino}benzonitrile]: 640 nM.
Take `O=[N+]([O-])c1cc(C2CC2)ccc1NCCCCCCN1C[C@H](O)[C@@H](O)[C@H](O)[C@H]1CO` [Compound 1136, (2R,3R,4R,5S)-1-{6-[(4-cyclopropyl-2-nitrophenyl)amino]hexyl}-2-(hydroxymethyl)piperidine-3,4,5-triol]: the IC50 is 25 nM.
For `[N-]=[N+]=Nc1ccc(NCCc2cc(Br)cc(CCN3C[C@H](O)[C@@H](O)[C@H](O)[C@H]3CO)c2)c([N+](=O)[O-])c1` [Compound 1140, (2R,3R,4R,5S)-1-[2-(3-{2-[(4-azido-2-nitrophenyl)amino]ethyl}-5-bromophenyl)ethyl]-2-(hydroxymethyl)piperidine-3,4,5-triol], the IC50 was determined as 153 nM.
Take `COc1cc(CC2CCOC2)cc(NCCCCCCN2C[C@H](O)[C@@H](O)[C@H](O)[C@H]2CO)c1` (stereo partly drawn) [Compound 1141, (2R,3R,4R,5S)-2-(hydroxymethyl)-1-[6-({3-methoxy-5-[(oxolan-3-yl)methyl]phenyl}amino)hexyl]piperidine-3,4,5-triol]: the IC50 was determined as 1160 nM.
As for `[N-]=[N+]=Nc1ccc(NCCNc2cc(Cl)cc(CCN3C[C@H](O)[C@@H](O)[C@H](O)[C@H]3CO)c2)c([N+](=O)[O-])c1` [Compound 1143, (2R,3R,4R,5S)-1-{2-[3-({2-[(4-azido-2-nitrophenyl)amino]ethyl}amino)-5-chlorophenyl]ethyl}-2-(hydroxymethyl)piperidine-3,4,5-triol], the IC50 is 334 nM.
Same read-out and setting: to `COc1cc(Cc2ccccc2)cc(NCCCCCCN2C[C@H](O)[C@@H](O)[C@H](O)[C@H]2CO)c1` [Compound 1145, (2R,3R,4R,5S)-1-{6-[(3-benzyl-5-methoxyphenyl)amino]hexyl}-2-(hydroxymethyl)piperidine-3,4,5-triol] belongs 283 nM; to `COc1cc(NCCCCCCN2C[C@H](O)[C@@H](O)[C@H](O)[C@H]2CO)cc(C2CCCO2)c1` (stereo partly drawn) [Compound 1146, (2R,3R,4R,5S)-2-(hydroxymethyl)-1-(6-{[3-methoxy-5-(oxolan-2-yl)phenyl]amino}hexyl)piperidine-3,4,5-triol], 511 nM; to `COc1cc(NCCCCCCN2C[C@H](O)[C@@H](O)[C@H](O)[C@H]2CO)cc(C2=CCCO2)c1` [Compound 1147, (2R,3R,4R,5S)-1-(6-{[3-(4,5-dihydrofuran-2-yl)-5-methoxyphenyl]amino}hexyl)-2-(hydroxymethyl)piperidine-3,4,5-triol], 263 nM.
Consider `COc1cc(NCCCCCCN2C[C@H](O)[C@@H](O)[C@H](O)[C@H]2CO)cc(C2CCCCC2)c1` [Compound 1148, (2R,3R,4R,5S)-1-{6-[(3-cyclohexyl-5-methoxyphenyl)amino]hexyl}-2-(hydroxymethyl)piperidine-3,4,5-triol], for which the IC50 was 372 nM.

These data come from patent US20250197372A1 (priority 2020, published 2025).
